Patent publication US5006448A, “Photographic material and process” (Eastman Kodak Company, priority 1989, dated 1991)

Test: Imbibition test of intrinsic inhibition strength of free inhibitors
Details: inhibitor prebath 5×10^-5 M, pH 10 carbonate buffer plus 0.1% dimethylformamide, 38° C., 2 min
Source text: Development inhibitors are generally released imagewise from an incorporated DIR compound during processing of the exposed photographic element. To evaluate the intrinsic inhibition strength of such inhibitors, independent of DIR release, an imbibition test is used. This involves imbibing an exposed film strip with a solution containing a given concentration of the free inhibitor to be tested. Nitrogen burst agitation of the imbibing solution improves the repeatability and effectiveness of inhibitor incorporation. The measured strength obtained by this test serves as an important guide in selecting inhibitors for desired photographic acutance improvements.
Film samples for imbibition testing of inhibitors were prepared having the following schematic layer structure and using a silver bromoiodide emulsion containing 6.4 mole % iodide (numerical values denote coating coverages in mg/m^2 and the silver halide values are for equivalent weights of silver):
Film strips cut from this coated element were exposed through a graduated density test object and a Kodak Wratten 99 (green) filter. Before development a strip was immersed at 38° C. under nitrogen agitation in each of the separate prebaths containing a test inhibitor at 5×10^-5 M concentration in a pH 10 carbonate buffer plus 0.1% dimethylformamide. As controls, each test set included a check strip which was immersed in a prebath containing no inhibitor and strips immersed in prebaths containing the comparison inhibitors phenylmercaptotetrazole (CI-1) and ethylmercaptotetrazole (CI-2). Photographic processing was carried out at 38° C. in the following steps:
The density of each test strip at this same exposure was noted and the inhibition strength number (I.S. No.) calculated using the equation: [formula]
Larger I.S. numbers for given inhibitors indicate stronger inhibition resulting in less dye density formed. Table IV lists these […], as well as calculated log P values, for a number of inhibitors released by compounds of the invention and for comparison inhibitors CI-1 through CI-8. It can be seen that, at equivalent partition coefficient (Log P) values, the inhibitors useful in the invention show higher inhibition strength than the controls. Alternatively, at approximately equal inhibition strength, inhibitors of the invention have lower partition coefficients.

## CCCSCCCc1nn[nH]n1 [Compound I-24]
  Inhibition Strength No.: 20

## CCSCCSCCCc1nn[nH]n1 [Compound I-134]
  Inhibition Strength No.: 77

## CCCCCCCCCSc1nn[nH]n1 [CI-4, reference compound]
  Inhibition Strength No.: 43

## CCCSCCSCc1ccccc1-c1nn[nH]n1 [Compound I-136]
  Inhibition Strength No.: 84

## O=C(Oc1ccccc1)c1ccc2[nH]nnc2c1 [CI-7, reference compound]
  Inhibition Strength No.: 40

## CCCCCCN(CCCCCC)c1nn[nH]n1 [CI-5, reference compound]
  Inhibition Strength No.: 52

## CCCCSCCCCCCc1nn[nH]n1 [Compound I-51]
  Inhibition Strength No.: 83

## CCOc1cc2nn[nH]c2cc1OCC [CI-8, reference compound]
  Inhibition Strength No.: 35

## CCCSc1ccc2[nH]nnc2c1 [Compound I-138]
  Inhibition Strength No.: 69

## CCCCCCCCSCCc1nn[nH]n1 [Compound I-21]
  Inhibition Strength No.: 95

## CCCCCOc1ccc(-c2nn[nH]n2)cc1 [CI-6, reference compound]
  Inhibition Strength No.: 16

## CCCCSCCCOc1ccc(-c2nn[nH]n2)cc1 [Compound I-26]
  Inhibition Strength No.: 67

## CCCCCCSCCCc1nn[nH]n1 [Compound I-23]
  Inhibition Strength No.: 77

## CCn1nnnc1S [CI-2, reference compound]
  Inhibition Strength No.: 15

## CCCCCCCCCSCc1nn[nH]n1 [Compound I-5]
  Inhibition Strength No.: 95

## CSCCSc1ccc2[nH]nnc2c1 [Compound I-139, 6'-(2-methylthioethylthio)benzotriazole]
  Inhibition Strength No.: 88

## CCCCCCCCc1nn[nH]n1 [CI-3, reference compound]
  Inhibition Strength No.: 18

## CCCSCCOC(=O)c1ccc2[nH]nnc2c1 [Compound I-137]
  Inhibition Strength No.: 86

## CCCCCCCSCCCc1nn[nH]n1 [Compound I-22]
  Inhibition Strength No.: 94

## CCCCSCCN(CCSCCCC)c1nn[nH]n1 [Compound I-37]
  Inhibition Strength No.: 66

## Sc1nnnn1-c1ccccc1 [CI-1, phenylmercaptotetrazole, reference compound]
  Inhibition Strength No.: 80
